Assay results taken from patent publication US9475816B2, “Substituted-1,4-dihydropyrazolo[4,3-b]indoles” (TAKEDA PHARMACEUTICAL COMPANY LIMITED, priority 2012, dated 2016).

Assays:
[1] = target: T1, human MetAP2 enzyme (Homo sapiens, UniProt P50579); assay: MetAP2 enzyme assay, MetAP2 enzyme complexed with manganese ions; conditions: MetAP2 Mn pIC50, 10 μM MnCl2; -log(IC50), IC50 molar
[2] = target: T1, human MetAP2 enzyme; assay: MetAP2 enzyme assay, MetAP2 enzyme complexed with cobalt ions; conditions: MetAP2 Co pIC50, 10 μM CoCl2; -log(IC50), IC50 molar

T1 sequence (P50579 whole entry): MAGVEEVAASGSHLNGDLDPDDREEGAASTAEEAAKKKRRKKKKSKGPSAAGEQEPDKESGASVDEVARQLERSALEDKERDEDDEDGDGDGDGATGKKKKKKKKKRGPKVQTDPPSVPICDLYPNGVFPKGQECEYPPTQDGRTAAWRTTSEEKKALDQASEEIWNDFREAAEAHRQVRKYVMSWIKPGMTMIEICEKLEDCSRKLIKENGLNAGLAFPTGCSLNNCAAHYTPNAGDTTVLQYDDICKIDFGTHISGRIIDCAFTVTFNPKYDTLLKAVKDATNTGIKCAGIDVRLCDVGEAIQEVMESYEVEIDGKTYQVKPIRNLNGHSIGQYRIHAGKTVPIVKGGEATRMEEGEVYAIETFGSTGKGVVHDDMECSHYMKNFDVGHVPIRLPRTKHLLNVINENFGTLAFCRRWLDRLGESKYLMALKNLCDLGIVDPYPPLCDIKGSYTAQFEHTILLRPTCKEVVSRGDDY

Compound	IC50 [1]	IC50 [2]
Cc1nc(N2CC[C@H](C(N)=O)C2)ncc1-n1c2ccc(F)cc2c2[nH]ncc21 [Example 21, (3S)-1-(5-(7-Fluoropyrazolo[4,3-b]indol-4(1H)-yl)-4-methylpyrimidin-2-yl)pyrrolidine-3-carboxamide]	7.94 nM	15.8 nM
N#Cc1[nH]ncc1-n1c2ccc(F)cc2c2[nH]ncc21 [Example 22, 4-(7-Fluoropyrazolo[4,3-b]indol-4(1H)-yl)-1H-pyrazole-5-carbonitrile]	10 nM	31.6 nM
CCn1nc(C)c(-n2c3ccc(F)cc3c3[nH]ncc32)c1C [Example 23, 4-(1-Ethyl-3,5-dimethyl-1H-pyrazol-4-yl)-7-fluoro-1,4-dihydropyrazolo[4,3-b]indole]	15.8 nM	10 nM
Cc1nc(N2CCC[C@@H](O)C2)ncc1-n1c2ccc(F)cc2c2[nH]ncc21 [Example 24, (3R)-1-(5-(7-Fluoropyrazolo[4,3-b]indol-4(1H)-yl)-4-methylpyrimidin-2-yl)piperidin-3-ol]	3.98 nM	6.31 nM
Fc1ccc2c(c1)c1[nH]ncc1n2-c1cnn2c1CNCC2 [Example 25, 7-Fluoro-4-(4,5,6,7-tetrahydropyrazolo[1,5-a]pyrazin-3-yl)-1,4-dihydropyrazolo[4,3-b]indole]	12.6 nM	25.1 nM
Cc1cc2cn[nH]c2cc1-n1c2ccc(F)cc2c2[nH]ncc21 [Example 26, 7-Fluoro-4-(5-methyl-1H-indazol-6-yl)-1,4-dihydropyrazolo[4,3-b]indole]	7.94 nM	10 nM
Cc1nc(N2CC[C@H](O)C2)ccc1-n1c2ccc(F)cc2c2[nH]ncc21 [Example 27, (3S)-1-(5-(7-Fluoropyrazolo[4,3-b]indol-4(1H)-yl)-6-methylpyridin-2-yl)pyrrolidin-3-ol]	3.98 nM	6.31 nM
Cc1c(-n2c3ccc(F)cc3c3[nH]ncc32)cnc2[nH]c(=O)[nH]c12 [Example 28, 6-(7-Fluoropyrazolo[4,3-b]indol-4(1H)-yl)-7-methyl-1H-imidazo[4,5-b]pyridin-2(3H)-one]	5.01 nM	6.31 nM
Cc1nc(N2CCC(O)CC2)ncc1-n1c2ccc(F)cc2c2[nH]ncc21 [Example 29, 1-(5-(7-Fluoropyrazolo[4,3-b]indol-4(1H)-yl)-4-methylpyrimidin-2-yl)piperidin-4-ol]	7.94 nM	6.31 nM
CCn1cnc2cc(-n3c4ccc(F)cc4c4[nH]ncc43)c(C)nc21 [Example 30, 4-(3-Ethyl-5-methyl-3H-imidazo[4,5-b]pyridin-6-yl)-7-fluoro-1,4-dihydropyrazolo[4,3-b]indole]	6.31 nM	3.98 nM
COCCn1cnc2cc(-n3c4ccc(F)cc4c4[nH]ncc43)c(C)nc21 [Example 31, 7-Fluoro-4-(3-(2-methoxyethyl)-5-methyl-3H-imidazo[4,5-b]pyridin-6-yl)-1,4-dihydropyrazolo[4,3-b]indole]	10 nM	7.94 nM
Cc1nc2[nH]c(=O)n(CCO)c2cc1-n1c2ccc(F)cc2c2[nH]ncc21 [Example 32, 6-(7-Fluoropyrazolo[4,3-b]indol-4(1H)-yl)-1-(2-hydroxyethyl)-5-methyl-1H-imidazo[4,5-b]pyridin-2(3H)-one]	10 nM	7.94 nM
Cc1nc2c(cc1-n1c3ccc(F)cc3c3[nH]ncc31)[nH]c(=O)n2C[C@H](O)CO [Example 33, 3-((S)-2,3-Dihydroxypropyl)-6-(7-fluoropyrazolo[4,3-b]indol-4(1H)-yl)-5-methyl-1H-imidazo[4,5-b]pyridin-2(3H)-one]	10 nM	7.94 nM
Cc1nc(N2CC[C@H](F)C2)ncc1-n1c2ccc(F)cc2c2[nH]ncc21 [Example 34, 7-Fluoro-4-(2-((S)-3-fluoropyrrolidin-1-yl)-4-methylpyrimidin-5-yl)-1,4-dihydropyrazolo[4,3-b]indole]	79.4 nM	63.1 nM
Cc1nc(N2CC[C@@H](N(C)C)C2)ncc1-n1c2ccc(F)cc2c2[nH]ncc21 [Example 35, (3R)-1-(5-(7-Fluoropyrazolo[4,3-b]indol-4(1H)-yl)-4-methylpyrimidin-2-yl)-N,N-dimethylpyrrolidin-3-amine]	79.4 nM	39.8 nM
Cc1nc(N2CC[C@@H](F)C2)ncc1-n1c2ccc(F)cc2c2[nH]ncc21 [Example 36, 7-Fluoro-4-(2-((R)-3-fluoropyrrolidin-1-yl)-4-methylpyrimidin-5-yl)-1,4-dihydropyrazolo[4,3-b]indole]	63.1 nM	39.8 nM
Cc1nc(N2CCC[C@H](O)C2)ncc1-n1c2ccc(F)cc2c2[nH]ncc21 [Example 37, (3S)-1-(5-(7-Fluoropyrazolo[4,3-b]indol-4(1H)-yl)-4-methylpyrimidin-2-yl)piperidin-3-ol]	6.31 nM	6.31 nM
CNC(=O)[C@@H]1CCCN1c1ncc(-n2c3ccc(F)cc3c3[nH]ncc32)c(C)n1 [Example 38, (2S)-1-(5-(7-Fluoropyrazolo[4,3-b]indol-4(1H)-yl)-4-methylpyrimidin-2-yl)-N-methylpyrrolidine-2-carboxamide]	7.94 nM	6.31 nM
Cc1nc(N2CCN(C)C(=O)C2)ncc1-n1c2ccc(F)cc2c2[nH]ncc21 [Example 39, 4-(5-(7-Fluoropyrazolo[4,3-b]indol-4(1H)-yl)-4-methylpyrimidin-2-yl)-1-methylpiperazin-2-one]	7.94 nM	6.31 nM
Cc1[nH]c(=O)ccc1-n1c2ccc(F)cc2c2[nH]ncc21 [Example 40, 5-(7-Fluoropyrazolo[4,3-b]indol-4(1H)-yl)-6-methylpyridin-2(1H)-one]	15.8 nM	15.8 nM
Cc1cc(N)ncc1-n1c2ccc(F)cc2c2[nH]ncc21 [Example 41, 5-(7-Fluoropyrazolo[4,3-b]indol-4(1H)-yl)-4-methylpyridin-2-amine]	12.6 nM	12.6 nM
Cc1nc(N)ccc1-n1c2ccc(F)cc2c2[nH]ncc21 [Example 42, 5-(7-Fluoropyrazolo[4,3-b]indol-4(1H)-yl)-6-methylpyridin-2-amine]	15.8 nM	10 nM
Cc1nc(N2CC(F)(F)C2)ncc1-n1c2ccc(F)cc2c2[nH]ncc21 [Example 43, 4-(2-(3,3-Difluoroazetidin-1-yl)-4-methylpyrimidin-5-yl)-7-fluoro-1,4-dihydropyrazolo[4,3-b]indole]	12.6 nM	12.6 nM
Cc1nc(N2CCNC(=O)C2)ncc1-n1c2ccc(F)cc2c2[nH]ncc21 [Example 44, 4-(5-(7-Fluoropyrazolo[4,3-b]indol-4(1H)-yl)-4-methylpyrimidin-2-yl)piperazin-2-one]	10 nM	7.94 nM
CNc1cc(C)c(-n2c3ccc(F)cc3c3[nH]ncc32)cn1 [Example 45, 5-(7-Fluoropyrazolo[4,3-b]indol-4(1H)-yl)-N,4-dimethylpyridin-2-amine]	12.6 nM	6.31 nM
Cn1nccc1-n1c2ccc(F)cc2c2[nH]ncc21 [Example 46, 7-Fluoro-4-(1-methyl-1H-pyrazol-5-yl)-1,4-dihydropyrazolo[4,3-b]indole]	20 nM	20 nM
Cc1nc(N2CC(CO)C2)ncc1-n1c2ccc(F)cc2c2[nH]ncc21 [Example 47, (1-(5-(7-Fluoropyrazolo[4,3-b]indol-4(1H)-yl)-4-methylpyrimidin-2-yl)azetidin-3-yl)methanol]	12.6 nM	7.94 nM
